Measured values from patent publication US5688771A, “Lipophilic oligopeptides with immunomodulating activity” (priority 1993, dated 1997).
“Also recorded” adds a separate entry of the source.

Assays:
[1] = tested on: murinecytomegalovirus (MCMV) (Smith strain); assay: MCMV titers in tissues; type: in vivo, Swiss Webster female mice; conditions: 25 mg/kg
[2] = tested on: murinecytomegalovirus (MCMV) (Smith strain); assay: Mortality in MCMV-infected mice; type: in vivo, Swiss Webster female mice; conditions: MCMV-infected mice
[3] = Toxicity controls: mortality and weight gain in uninfected mice; type: in vivo; conditions: mouse, in vivo, 25 mg/kg
Method: Groups of 5 uninfected mice were treated the same way and at the same times as described above. These animal were checked daily for survival. Their weigths were taken before the first treatment and 24 hours after the last treatment to determine drug effect on weight gain.

[4] = tested on: IgM antibody against SRBC antigen; assay: Enzyme immunoassay of IgM antibody in blood of SRBC-immunized mice; type: in vivo
Method: Outbred CD1 mice were immunized with 0.1% volume for volume sheep red blood cell antigen suspended in saline. The mice were injected intraperitoneally with 0.5 ml, suspension of approximately 2×10^7 cells.
The mice were injected shortly thereafter with a suspension of an immunomodulator of the invention. The immunomodulator dose was a 0.23 ml of a 1 mg/ml suspension in phosphate buffered saline. The injected dose was 10 mg/kg. The second injection was also intraperitoneal.
The mice were killed five days after injections. Blood samples were taken for analysis of immunoglobulin. The determination was made by enzyme immunoassay using an anti μ-horseradish peroxidase conjugate. The spleen was removed, transferred to a petri dish containing 2 ml of Hank's balanced salt solution and 10 mMolar Hepes buffer (HBSS-HEPES). The spleen was gently crushed by the use of forceps, and the cell suspension was filtered through cotton gauze to eliminate cellular debris. The filtered suspension was brought to volume (5 ml) by the addition of HBSS-HEPES, the cells counted, and the suspension diluted to a final concentration of 5×10^6 cells/ml.

[5] = tested on: antibody producing cells (SRBC antigen); assay: Plaque forming assay (PFC) in spleen cells of SRBC-immunized mice; type: in vivo; conditions: for Plaque Assay, PFC relative to control (100%) / Plaque Assay, PFC per 10^6 spleen cells: mice, 10 mg/kg i.p.; for Plaque Assay, PFC per 10^6 spleen cells: five days after injections; for Immunomodulating activity (in words): plaque-forming assay, Table 1
[6] = tested on: YAC-1 tumor cells; assay: Natural killer cell activity, 4 hr chromium release assay; conditions: for % Chromium Release ± SD, Effector:Target Ratio 25:1 / % Chromium Release ± SD, Effector:Target Ratio 50:1: 50 mg/kg/day i.p. every other day for 4 injections, splenocytes 24 hr after final treatment, n = 5
Method: (§1) Mice were administered a 50 mg/kg dose of the immunomodulators of the invention and were subsequently sacrificed. The spleens were harvested and splenocytes isolated. Immunologic assays were conducted on those splenocytes that were taken 24 hours after final treatment. These cells were subjected to tests to determine macrophage and natural killer (NK) cell function.
Three week-old C57 BL/6 mice were procured and quarantined for 24 to 48 hours prior to treatment. The five oligopeptides described in tables 2, 3 and 4 were admixed with a 0.4% water solution of carboxymethylcellulose. The solutions were stored at 4° C. until use. Ribavarin (1-β-D-ribofuranosyl-1,2,4-triazole-carboxamide) was used in each subsequent experiment as a control.
(§2) Animals were treated with a 50 mg/kg/day dosage of one of the tested compound and were killed 24 hr after the final treatment and their spleens removed. […] Red blood cells were removed by haemolytic lysis.
Natural killer (NK) activity of murine cells was determined by testing splenic cells for their ability to lyse YAC-1 tumor cells in a conventional 4 hr chromium release assay as an indicator of NK was expressed as: % chromium release=(experimental counts per minute (cpm)-background cpm)/(maximum cpm-background cpm)

[7] = tested on: Macrophage function (IL-1 activity in splenocytes); assay: Macrophage function, IL-1 activity in splenocytes by [3H]thymidine uptake in PHA-stimulated thymocytes; conditions: for Mean CPM of Treated Thymocytes ± SD: 50 mg/kg/day i.p. every other day for 4 injections, splenocytes 24 hr after final treatment, n = 5; for Effect on macrophage function (in words): 50 mg/kg, splenocytes 24 hours after final treatment, Hydrochloride
Method: as §1
Ribavarin (1-β-D-ribofuranosyl-1,2,4-triazole-carboxamide) was used in each subsequent experiment as a control.
as §2
Macrophage function was assessed by an interleukin-1 (IL-1) assay that utilizes responsiveness of mouse thymocytes to phytohemagglutin (PHA) which is dependent on IL-1 for its reactivity.
The cells were incubated 72 hr at 37° C. During the last 4 hr of the incubation, the cells were pulsed with [^3 H] thymidine (1 μCi/well). The cells were then harvested and [H^3 ] thymidine incorporation was determined using a direct counter.

[8] = tested on: Total T and B cells in splenocytes; assay: Splenic T and B cell enumeration by FACS; type: in vivo, C57BL/6 mice; conditions: for % Cells/Spleen ± SD, B Cells / % Cells/Spleen ± SD, T Cells: 50 mg/kg/day i.p. every other day for 4 injections, n = 5; for % Cells/Spleen ± SD, B Cells: anti-Ly5; for % Cells/Spleen ± SD, T Cells: anti-Thy 1.2; for Effect on B cell counts (in words) / Effect on T cell counts (in words): 50 mg/kg, splenocytes, Hydrochloride
Text: Splenic cells were enumerated with the following assay. Dispersed splenocytes were reacted with fluorescein isothiocyanate-labelled murine monoclonal antibody anti-Ly5 for B cell enumeration and phycoerythrin-labelled monoclonal antibody anti-Thy 1.2 for T cell counts. The labelled cells were then enumerated with a fluorescence-activated cell sorter (FACS) (EPICS-C, Coulter Corp., Hialeah, Fla.).

[9] = 25 mg/kg i.p. once daily for 5 days from 24 hours after virus, 21 days

| Molecule | Enzyme Immunoassay, IgM antibody relative to control (100%) ([4]; Experiment 8, 10 mg/kg i.p.) [%] | Plaque Assay, PFC relative to control (100%) ([5]; Experiment 8) [%] | Plaque Assay, PFC per 10^6 spleen cells ([5]; Experiment 8) [PFC per 10^6 spleen cells] | Immunomodulating activity (in words) [5] | % Chromium Release ± SD, Effector:Target Ratio 25:1 [6] [%] | % Chromium Release ± SD, Effector:Target Ratio 50:1 [6] [%] | Enzyme Immunoassay, IgM antibody relative to control (100%) ([4]; Experiment 5, 10 mg/kg i.p.) [%] | Mean CPM of Treated Thymocytes ± SD [7] [CPM] | Effect on macrophage function (in words) [7] | % Cells/Spleen ± SD, B Cells [8] [%] | % Cells/Spleen ± SD, T Cells [8] [%] | Effect on B cell counts (in words) [8] | Effect on T cell counts (in words) [8] | Plaque Assay, PFC relative to control (100%) ([5]; Experiment 5) [%] | Plaque Assay, PFC per 10^6 spleen cells ([5]; Experiment 5) [PFC per 10^6 spleen cells] | also measured |
| --- | --- | --- | --- | --- | --- | --- | --- | --- | --- | --- | --- | --- | --- | --- | --- | --- |
| Nc1nc(O)c2ncn(COC(CO)CO)c2n1 [Ganciclovir, reference compound] | – | – | – | – | – | – | – | – | – | – | – | – | – | – | – | Virus titer in Liver ([1]; Day 3): 2.6±0.2 Log10 CCID50/qram; Virus titer in Lung ([1]; Day 3): < 2.5±0.0 Log10 CCID50/qram; Virus titer in salivary gland ([1]; Day 3): 3.1±0.6 Log10 CCID50/qram; Virus titer in spleen ([1]; Day 3): 5.7±0.3 Log10 CCID50/qram; Virus titer in Liver ([1]; Day 6): 3.3±0.8 Log10 CCID50/qram; Virus titer in Lung ([1]; Day 6): 3.5±0.6 Log10 CCID50/qram; Virus titer in salivary gland ([1]; Day 6): 3.3±0.8 Log10 CCID50/qram; Virus titer in spleen ([1]; Day 6): 3.6±0.9 Log10 CCID50/qram; Survivors (%) [2, 9]: 100%; Survivors/total [2, 9]: 10/10; Mean day to death ([2]; 25 mg/kg i.p. once daily for 5 days, of mice that died on or before day 21): > 21 days; Survivors (%) [3]: 100%; Survivors/total [3]: 5/5 |
| Octadecyl L-Alanyl D-Isoglutamyl γ-Glycine Hydrochloride [BCH-1315] | 202 | 204 | 1012 ± 207 | immunostimulants | – | – | – | – | – | – | – | – | – | – | – | – |
| CCCCCCCCCCCCCCCCCCN[C@H](C(=O)N[C@H](CCC(N)=O)C(=O)O)C(C)C.Cl [BCH 1317, Octadecyl L-Valyl D-Glutamine Hydrochloride] | – | – | – | – | – | – | – | – | – | – | – | – | – | – | – | Enzyme Immunoassay, IgM antibody relative to control (100%) ([4]; Experiment 9, 10 mg/kg i.p.): 189%; Plaque Assay, PFC relative to control (100%) ([5]; Experiment 9): 149%; Plaque Assay, PFC per 10^6 spleen cells ([5]; Experiment 9): 750 ± 191 PFC per 10^6 spleen cells |
| CCCCCCCCCCCCCCCCCCOC(=O)[C@@H](CCC(=O)O)NC(=O)[C@H](C)N.Cl [BCH-526, α-Octadecyl L-Alanyl D-Glutamate Hydrochloride] | – | – | – | immunosuppressors | 12.8 ± 2.1 | 17.2 ± 3.3 | 82 | 3413 ± 206 | moderately inhibitory; also recorded: moderate macrophage suppression | 43 ± 1.4 | 40 ± 2.4 | increase % B cells; also recorded: increased B cell counts | suppressing T cells; also recorded: suppressed T cell counts | 77 | 325 ± 300 | – |
| CCCCCCCCCCCCCCCCCCOC(=O)CC[C@@H](NC(=O)[C@H](C)N)C(=O)O.Cl [BCH-524, γ-Octadecyl L-Alanyl D-Glutamate Hydrochloride] | – | – | – | immunosuppressors | 9.8 ± 3.6 | 14.3 ± 1.9 | 80 | 5491 ± 1269 | somewhat stimulatory; also recorded: macrophage stimulation | 33 ± 10.2 | 35 ± 9.6 | suppressive; also recorded: suppressed | suppressive; also recorded: suppressed | 58 | 245 ± 90 | Effect on natural killer (NK) cell activity (in words) ([6]; 50 mg/kg, splenocytes 24 hours after final treatment, Hydrochloride): marginally suppressive; also recorded: marginal natural killer cell suppression |
| CCCCCCCCCCCCCCCCCCNC(=O)CC[C@@H](NC(=O)[C@H](C)N)C(N)=O.Cl [BCH-1316, L-Alanyl D-Isoglutamyl Octadecylamine Hydrochloride] | 186 | 153 | 759 ± 252 | immunostimulants | – | – | – | – | – | – | – | – | – | – | – | – |
